What all share (type): biochemical
The target of assay [1] is T1, human c-KIT (Thr544-Val976) (Homo sapiens, UniProt P10721).
T1 construct: human c-KIT (Thr544-Val976); GST (N); purchased Cell Signaling Technology; host or cells: baculovirus expression system
Nature of the assay: c-KIT kinase assay (HTScan kit, DELFIA). To be noted: for inhibition at 0.1 µM: read-out: c-KIT 0.1 μM, % of inhibition relative to control; for inhibition at 1 µM: read-out: c-KIT 1 μM, % of inhibition relative to control. The method, boiled down:
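GST-tagged human c-KIT (Thr544-Val976) from baculovirus, with 1.5 μM biotinylated KDR Tyr-996 peptide and 20 μM ATP in HEPES pH 7.5 buffer containing Mg2+/Mn2+ and 1% DMSO. Enzyme and compound pre-incubated 5 min, reaction run 30 min at room temperature; phosphorylation detected by DELFIA.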

In assay [2] the target is T2, human VEGFR-2 (Val789-Val1356) (Homo sapiens, UniProt P35968).
T2 construct: human VEGFR-2 (Val789-Val1356); GST (N); purchased Cell Signaling Technology; host or cells: baculovirus expression system
The assay can be described thus: KDR kinase assay (HTScan VEGFR-2 kit, DELFIA). The note with it: for inhibition at 0.1 µM: read-out: KDR 0.1 μM, % of inhibition relative to control; for inhibition at 1 µM: read-out: KDR 1 μM, % of inhibition relative to control. The method, boiled down: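 GST-tagged human VEGFR-2 (Val789-Val1356) from baculovirus, with 1.5 μM biotinylated gastrin precursor peptide and 20 μM ATP in HEPES pH 7.5, Mg/Mn, vanadate, DTT, 1% DMSO. Pre-incubation 5 min, reaction 30 min at room temperature; phosphorylation read by DELFIA.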

The target in assay [3] is T3, human FLT-3 (Arg571-Ser993) (Homo sapiens, UniProt P36888).
T3 construct: human FLT-3 (Arg571-Ser993); GST (N); purchased Cell Signaling Technology; host or cells: baculovirus expression system
T3 sequence (P36888 571-993): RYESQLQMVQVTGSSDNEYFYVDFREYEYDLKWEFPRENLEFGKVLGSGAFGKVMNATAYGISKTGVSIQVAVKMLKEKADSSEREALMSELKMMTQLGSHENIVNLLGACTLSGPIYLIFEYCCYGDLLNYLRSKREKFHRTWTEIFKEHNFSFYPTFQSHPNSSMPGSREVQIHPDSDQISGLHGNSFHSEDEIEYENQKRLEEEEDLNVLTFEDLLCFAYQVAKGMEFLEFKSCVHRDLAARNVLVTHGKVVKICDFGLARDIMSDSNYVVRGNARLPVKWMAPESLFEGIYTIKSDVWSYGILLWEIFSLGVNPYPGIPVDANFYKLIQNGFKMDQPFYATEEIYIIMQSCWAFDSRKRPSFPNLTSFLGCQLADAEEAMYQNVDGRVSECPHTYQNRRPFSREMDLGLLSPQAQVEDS
The assay can be described thus: FLT-3 kinase assay (HTScan kit, DELFIA). To be noted: for inhibition at 0.1 µM: read-out: FLT-3 0.1 μM, % of inhibition relative to control; for inhibition at 1 µM: read-out: FLT-3 1 μM, % of inhibition relative to control. A digest of the protocol: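 GST-tagged human FLT-3 (Arg571-Ser993, baculovirus-expressed) phosphorylated 1.5 μM biotinylated gastrin precursor peptide with 20 μM ATP in HEPES pH 7.5, Mg/Mn buffer and 1% DMSO. After 5 min preincubation, the reaction ran 30 min at room temperature. Phosphorylation was read by DELFIA.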

The target in assay [4] is T4, human EGFR (His672-Ala1210) (Homo sapiens, UniProt P00533).
T4 construct: human EGFR (His672-Ala1210); GST (N); purchased Cell Signaling Technology; host or cells: baculovirus expression system
The assay can be described thus: EGFR kinase assay (HTScan kit, DELFIA). To be noted: for inhibition at 0.1 µM: read-out: EGFR 0.1 μM, % of inhibition relative to control; for inhibition at 1 µM: read-out: EGFR 1 μM, % of inhibition relative to control. As for the experimental part: Compounds 1-100 were treated for their efficacy in inhibiting activities of FLT-3, c-KIT, KDR/Flk-1, PDGFR-beta, EGFR, and PKC kinases by biochemical DELFIA (Dissociation Enhanced Lanthanide FIA) assays according to the procedure described below. The assays were conducted by, Division of Cell Engineering, Biomedical Engineering Research Laboratories, Industrial Technology Research Institute, Bldg. 53, 195, sec. 4, Chung Hsing Rd. Chutung, Hsinchu, Taiwan 310, R.O.C.
The EGFR assay was conducted following the protocol described in Protocol for HTScan® EGFR Kinase Assay Kit (Cell Signaling Technology®). The assay was conducted under the following conditions: EGFR source: The GST-kinase fusion protein was produced using a baculovirus expression system with a construct expressing human EGFR (His672-Ala1210) (GenBank Accession No. NM_005228) with an amino-terminal GST tag, substrate: 1.5 μM This biotinylated peptide contains the residues surrounding Tyr-66 of PTP1B, vehicle: 1% DMSO, pre-incubation time/temperature: 5 minutes at room temperature, incubation time/temperature: 30 minutes at room temperature, incubation buffer: 60 mM HEPES pH 7.5, 5 mM MgCl2, 5 mM MnCl2, 3 μM Na3VO4, 1.25 mM DTT, 20 μM ATP, and quantitative method: DELFIA® Assay.

T4 sequence (P00533 672-1210): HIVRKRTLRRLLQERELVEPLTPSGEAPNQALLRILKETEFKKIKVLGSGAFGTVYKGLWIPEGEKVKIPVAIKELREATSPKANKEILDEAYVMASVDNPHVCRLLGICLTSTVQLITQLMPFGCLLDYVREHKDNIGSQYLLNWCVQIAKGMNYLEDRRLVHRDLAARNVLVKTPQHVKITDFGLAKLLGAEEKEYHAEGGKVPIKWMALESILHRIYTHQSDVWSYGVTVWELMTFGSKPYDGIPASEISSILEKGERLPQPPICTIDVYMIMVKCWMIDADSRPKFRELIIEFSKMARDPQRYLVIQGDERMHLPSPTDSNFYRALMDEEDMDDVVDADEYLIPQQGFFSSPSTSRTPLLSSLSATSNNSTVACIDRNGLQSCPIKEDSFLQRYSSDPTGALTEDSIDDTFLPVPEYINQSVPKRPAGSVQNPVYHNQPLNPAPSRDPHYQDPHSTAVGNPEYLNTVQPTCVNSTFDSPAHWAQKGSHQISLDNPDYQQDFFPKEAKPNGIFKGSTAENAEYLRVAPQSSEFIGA
T2 sequence (P35968 789-1356): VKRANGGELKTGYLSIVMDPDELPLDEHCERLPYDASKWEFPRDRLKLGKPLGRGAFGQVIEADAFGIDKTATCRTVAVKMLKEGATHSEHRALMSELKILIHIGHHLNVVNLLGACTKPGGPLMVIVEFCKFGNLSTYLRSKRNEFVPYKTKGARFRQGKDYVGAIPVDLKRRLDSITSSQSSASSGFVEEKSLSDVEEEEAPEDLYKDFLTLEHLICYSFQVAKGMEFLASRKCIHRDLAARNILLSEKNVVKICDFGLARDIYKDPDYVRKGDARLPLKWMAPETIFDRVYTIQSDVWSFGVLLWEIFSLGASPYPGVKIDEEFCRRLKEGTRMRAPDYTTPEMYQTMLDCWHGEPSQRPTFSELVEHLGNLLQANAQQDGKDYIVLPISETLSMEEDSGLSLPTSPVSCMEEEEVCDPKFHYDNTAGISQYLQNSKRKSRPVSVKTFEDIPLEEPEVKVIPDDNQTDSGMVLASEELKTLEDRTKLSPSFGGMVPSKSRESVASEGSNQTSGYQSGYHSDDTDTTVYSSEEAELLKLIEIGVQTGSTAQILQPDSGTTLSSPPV
T1 sequence (P10721 544-976): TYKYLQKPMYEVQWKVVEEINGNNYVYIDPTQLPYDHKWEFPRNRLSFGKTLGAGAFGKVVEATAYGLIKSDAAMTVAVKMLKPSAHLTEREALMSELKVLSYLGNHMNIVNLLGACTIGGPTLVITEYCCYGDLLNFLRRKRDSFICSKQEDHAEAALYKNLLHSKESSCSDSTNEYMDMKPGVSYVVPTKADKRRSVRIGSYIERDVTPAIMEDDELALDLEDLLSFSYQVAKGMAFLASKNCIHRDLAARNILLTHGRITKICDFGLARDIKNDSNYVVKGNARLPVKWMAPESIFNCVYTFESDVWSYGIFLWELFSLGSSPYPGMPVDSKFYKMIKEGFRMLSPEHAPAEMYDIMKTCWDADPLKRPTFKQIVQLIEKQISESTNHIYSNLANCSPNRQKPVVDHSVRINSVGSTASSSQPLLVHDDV

Turning to `Cc1cc(/C=C2/C(=O)Nc3ccc(F)cc32)c2cccccc1-2` [Compound 38, 5-Fluoro-3-(3-methyl-azulen-1-ylmethylene)-1,3-dihydro-indol-2-one], the inhibition at 0.1 µM worked out at 72.6% in assay [1] (compound at 0.1 μM), 2.3% in assay [2] (compound at 0.1 μM), 40.5% in assay [3] (compound at 0.1 μM) and 0.8% in assay [4] (compound at 0.1 μM). The inhibition at 1 µM in assay [1] (compound at 1 μM) came to 72.6%; in assay [2] (compound at 1 μM) it was 8.4%; in assay [3] (compound at 1 μM), 79%; in assay [4] (compound at 1 μM) it was 1.7%.

Turning to `O=C1Nc2ccc(F)cc2/C1=C/c1cc(Cl)c2cccccc1-2` [Compound 46, 3-(3-Chloro-azulen-1-ylmethylene)-5-fluoro-1,3-dihydro-indol-2-one], the inhibition at 0.1 µM in assay [1] (compound at 0.1 μM) is 70.9%; in assay [2] (compound at 0.1 μM) it was 10%; in assay [3] (compound at 0.1 μM), 45.9%; in assay [4] (compound at 0.1 μM) it was 11%. Further, the inhibition at 1 µM is 70.9% in assay [1] (compound at 1 μM), 33.2% in assay [2] (compound at 1 μM), 73.5% in assay [3] (compound at 1 μM) and 18.5% in assay [4] (compound at 1 μM).

Consider `O=C1Nc2ccc(F)cc2/C1=C\c1cc(Br)c2cccccc1-2` [Compound 51, 3-(3-Bromo-azulen-1-ylmethylene)-5-fluoro-1,3-dihydro-indol-2-one], for which the inhibition at 0.1 µM in assay [1] (compound at 0.1 μM) worked out at 73.9%; in assay [3] (compound at 0.1 μM), 38.4%. Moreover, the inhibition at 1 µM in assay [1] (compound at 1 μM) was determined as 73.9%; in assay [2] (compound at 1 μM) it was 26.4%; in assay [3] (compound at 1 μM), 82.6%; in assay [4] (compound at 1 μM), 11.5%.

`O=C1Nc2ccc(-c3ccccc3)cc2/C1=C/c1ccc2cccccc1-2` [Compound 34, 3-Azulen-1-ylmethylene-5-phenyl-1,3-dihydro-indol-2-one]: the inhibition at 0.1 µM in assay [2] (compound at 0.1 μM) is 8.9%; in assay [3] (compound at 0.1 μM), 0.8%; in assay [4] (compound at 0.1 μM), 6.1%. The values for the inhibition at 1 µM in assay [2] (compound at 1 μM), in assay [3] (compound at 1 μM) and in assay [4] (compound at 1 μM) were 18.2%, 1.9% and 11.7%, respectively.

For the molecule `CN(C)S(=O)(=O)c1ccc2c(c1)/C(=C/c1ccc3cccccc1-3)C(=O)N2` [Compound 50, (3Z)-3-(((3aZ,5Z,7Z)-azulen-1-yl)methylene)-5-(N,N-dimethylsulfonyl)indolin-2-one], in assay [1] (compound at 0.1 μM), the “c-KIT 0.1 μM, % of inhibition relative to control” value is given as 19.5%. The “c-KIT 1 μM, % of inhibition relative to control” value in assay [1] (compound at 1 μM) is 19.5%. Also, the “KDR 0.1 μM, % of inhibition relative to control” value in assay [2] (compound at 0.1 μM) amounted to 22.3%. Moreover, the “KDR 1 μM, % of inhibition relative to control” value in assay [2] (compound at 1 μM) turned out to be 25.8%. Moreover, the “FLT-3 0.1 μM, % of inhibition relative to control” value in assay [3] (compound at 0.1 μM) was 4.0%. The “FLT-3 1 μM, % of inhibition relative to control” value in assay [3] (compound at 1 μM) stood at 29.6%. In assay [4] (compound at 0.1 μM), the “EGFR 0.1 μM, % of inhibition relative to control” value turned out to be 7.9%. Moreover, the “EGFR 1 μM, % of inhibition relative to control” value in assay [4] (compound at 1 μM) is given as 10.4%.

With `O=C1Nc2ccccc2/C1=C\c1cc2cccccc-2c1` [Compound 32, 3-Azulen-2-ylmethylene-1,3-dihydro-indol-2-one], the inhibition at 0.1 µM in assay [1] (compound at 0.1 μM) was 60.3%; in assay [3] (compound at 0.1 μM), 48.5%; in assay [4] (compound at 0.1 μM), 7.7%. The inhibition at 1 µM in assay [1] (compound at 1 μM) was found to be 60.3%; in assay [2] (compound at 1 μM) it was 6.2%; in assay [3] (compound at 1 μM), 89.5%; in assay [4] (compound at 1 μM), 13.7%.

For the molecule `COc1ccc2c(c1)NC(=O)/C2=C\c1ccc2cccccc1-2` [Compound 31, 3-Azulen-1-ylmethylene-6-methoxy-1,3-dihydro-indol-2-one], the inhibition at 1 µM in assay [3] (compound at 1 μM) came out at 14.9%. Moreover, the inhibition at 0.1 µM in assay [4] (compound at 0.1 μM) came out at 0.2%.

As to `CN(C)c1nc2cccccc-2c1/C=C1/C(=O)Nc2ccccc21` [Compound 35, 3-(2-Dimethylamino-cyclohepta[b]pyrrol-3-ylmethylene)-1,3-dihydro-indol-2-one, with propan-2-ol], the figures for the inhibition at 1 µM in assay [2] (compound at 1 μM) and in assay [4] (compound at 1 μM) were 20.3% and 12.1%, respectively. In addition, the inhibition at 0.1 µM in assay [4] (compound at 0.1 μM) worked out at 9.5%.

Consider `O=C1Nc2ccc(F)cc2/C1=C/c1c2cccccc-2oc1=O` [Compound 62, 5-Fluoro-3-(2-oxo-2H-cyclohepta[b]furan-3-ylmethylene)-1,3-dihydro-indol-2-one], for which the results for the inhibition at 0.1 µM in assay [1] (compound at 0.1 μM), in assay [2] (compound at 0.1 μM) and in assay [3] (compound at 0.1 μM) were 45.6%, 21.9% and 68.3%, respectively. Further, the results for the inhibition at 1 µM in assay [1] (compound at 1 μM), in assay [2] (compound at 1 μM) and in assay [3] (compound at 1 μM) were 45.6%, 35.1% and 74.9%, respectively.

For the molecule `CCc1cc(C=C2C(=O)Nc3ccc(F)cc32)c2cccccc1-2` [Compound 80, 3-(3-Ethyl-azulen-1-ylmethylene)-5-fluoro-1,3-dihydro-indol-2-one], the inhibition at 0.1 µM in assay [1] (compound at 0.1 μM) came out at 29.6%; in assay [2] (compound at 0.1 μM) it was 30.2%; in assay [3] (compound at 0.1 μM), 17.6%. Besides, the inhibition at 1 µM worked out at 29.6% in assay [1] (compound at 1 μM), 32% in assay [2] (compound at 1 μM) and 19.7% in assay [3] (compound at 1 μM).

Turning to `Cc1cc(/C=C2/C(=O)N(Cc3ccccc3)c3ccccc32)c2c(C)ccc(C(C)C)cc1-2` [Compound 13, 1-Benzyl-3-(5-isopropyl-3,8-dimethyl-azulen-1-ylmethylene)-1,3-dihydro-indol-2-one], the inhibition at 0.1 µM in assay [1] (compound at 0.1 μM) is 66.2%; in assay [2] (compound at 0.1 μM), 54.1%; in assay [3] (compound at 0.1 μM), 4.4%. In addition, the figures for the inhibition at 1 µM in assay [1] (compound at 1 μM), in assay [2] (compound at 1 μM) and in assay [3] (compound at 1 μM) were 66.2%, 83.9% and 0.2%, respectively.

For the molecule `Cc1cc(/C=C2/C(=O)Nc3ccc(F)cc32)c2ccccc(OCCCN(C)C)c1-2` [Compound 68, 3-[4-(3-Dimethylamino-propoxy)-3-methyl-azulen-1-ylmethylene]-5-fluoro-1,3-dihydro-indol-2-one], the inhibition at 0.1 µM is 34.4% in assay [1] (compound at 0.1 μM), 38.6% in assay [2] (compound at 0.1 μM) and 74.3% in assay [3] (compound at 0.1 μM). Also, the values for the inhibition at 1 µM in assay [1] (compound at 1 μM), in assay [2] (compound at 1 μM) and in assay [3] (compound at 1 μM) were 34.4%, 63.8% and 96.8%, respectively. In addition, the IC50 in assay [1] (read-out: c-KIT kinase inhibition (IC50)) is above 1000 nM; in assay [2] (read-out: KDR kinase inhibition (IC50)), 500 nM; in assay [3] (read-out: FLT-3 kinase inhibition (IC50)), 25.3 nM.

As for `CC(C)c1cc(C=C2C(=O)Nc3ccc(F)cc32)c2cccccc1-2` [Compound 81, 5-Fluoro-3-(3-isopropyl-azulen-1-ylmethylene)-1,3-dihydro-indol-2-one], the inhibition at 0.1 µM in assay [1] (compound at 0.1 μM) came out at 48.7%; in assay [2] (compound at 0.1 μM), 33%; in assay [3] (compound at 0.1 μM), 19.1%. In addition, the results for the inhibition at 1 µM in assay [1] (compound at 1 μM), in assay [2] (compound at 1 μM) and in assay [3] (compound at 1 μM) were 48.7%, 36.6% and 43.5%, respectively.

What is called inhibition is the relative decrease from the control value, in per cent. As a reminder, the IC50 is the concentration at which inhibition is half-maximal.
